This note sets out measurements from PubChem BioAssay (NCI).

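Results reflect a 48-hour exposure of cells in 96-well plates to compound at five concentrations. Definition used: TGI = concentration required for complete inhibition of growth.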 Some results are limits rather than exact numbers.

Some test systems named below: U251 CNS; HCT-116 colon; HOP-62 NSCLC; MCF7 breast; COLO 205 colon; RXF 393 renal; DU-145 prostate; K-562 leukemia; SNB-19 CNS; M14 melanoma; PC-3 prostate; MDA-MB-231 breast; NCI-H460 lung; RPMI-8226 leukemia; 786-0 renal; OVCAR-5 ovarian; HCC-2998 colon; SN12C renal; MDA-MB-435.
Assay in all cases: NCI-60 cell line screen, 48 h

Consider `O=C(OC1OC2COC(=O)c3cc(O)c(O)c(O)c3-c3c(cc(O)c(O)c3O)C(=O)OC3C2OC(=O)[C@@]24CC(=O)[C@@](O)(OC25C(=O)O[C@H]2[C@@H](O)CO[C@@]25O)C2(O)Oc5c(O)c(O)cc(c5C24)C(=O)OC13)c1cc(O)c(O)c(O)c1` (stereo partly drawn), for which the TGI with U251 CNS is more than 100 µM; in the assay with HCT-116 colon it was more than 100 µM; with HOP-62 NSCLC it was more than 100 µM; in the assay with MCF7 breast, 29.1 µM; with COLO 205 colon, more than 100 µM; in the assay with RXF 393 renal, more than 100 µM. For the same molecule, the TGI was more than 100 µM in the assay with DU-145 prostate; more than 100 µM in the assay with K-562 leukemia; more than 100 µM with SNB-19 CNS; more than 100 µM in the assay on M14 melanoma; more than 100 µM with PC-3 prostate; 18.5 µM in the assay on MDA-MB-231 breast. The TGI with NCI-H460 lung, in the assay with RPMI-8226 leukemia, in the assay with 786-0 renal, in the assay with OVCAR-5 ovarian, in the assay on HCC-2998 colon and in the assay with SN12C renal was more than 100 µM in each case. The TGI with MDA-MB-435 worked out at 33 µM.

With `COc1cc2c(cc1OCCCOc1cc3c(cc1OC)C(=O)N1CCC[C@H]1C(=O)N3)N=C[C@@H]1CCCN1C2=O`, the TGI in the assay with U251 CNS was 38.8 µM; in the assay on HCT-116 colon, more than 100 µM; with HOP-62 NSCLC, more than 100 µM; with MCF7 breast, 27.3 µM; in the assay on COLO 205 colon, 12.1 µM; with RXF 393 renal, 31 µM. The TGI with DU-145 prostate was more than 100 µM; with K-562 leukemia it was 27.3 µM; with SNB-19 CNS, more than 100 µM; in the assay with M14 melanoma it was 55.4 µM; in the assay with PC-3 prostate, 57 µM; with MDA-MB-231 breast it was 44 µM. Moreover, the TGI in the assay with NCI-H460 lung is 70.4 µM; in the assay on RPMI-8226 leukemia it was 21.2 µM; in the assay with 786-0 renal, more than 100 µM; in the assay with OVCAR-5 ovarian it was 59.6 µM; with HCC-2998 colon it was 31 µM; with SN12C renal, 61.5 µM. For the same molecule, the TGI in the assay with MDA-MB-435 was 31.5 µM.
